Measured values: paper PMC11009625, “Antibiotic class with potent in vivo activity targeting lipopolysaccharide synthesis in Gram-negative bacteria” (Proceedings of the National Academy of Sciences of the …, 2024)
≈ marks a conversion by molar mass, not a printed value. Like-named read-outs stand apart in the source and are kept apart here.

Experiments:
Eco MG1655 ∆tolC (EN243) = assay: MIC, efflux-defective parental strain EN243; format: cell-based, E. coli; settings: Escherichia coli, MG1655, read-out: MIC EN243
Description: (§1) Minimum inhibitory concentration (MIC) values were determined according to the Clinical Laboratory Standards Institute guidelines. Frequency of resistance was determined by plating ~5 × 10^8 bacterial cells on agar-solidified media plates containing test compound at concentrations corresponding to four times the measured solid-media MIC of the strains. Colonies were counted after 24 h, restreaked onto media containing the same concentration of compound, and the MIC remeasured against the assayed compound. Genomic DNA from isolated clones was sequenced by paired-end sequencing on an Illumina MiSeq device. Complete experimental details available in SI Appendix. […]
Minimum inhibitory concentration (MIC) determination. Broth microdilution and agar dilution
MIC assays were conducted according to CLSI guidelines (M07-2012). Appropriate inoculation
suspension density was assessed using a Sensititre Nephelometer with a Sensititre 0.5
(§2) McFarland Standard. […]

[1] = tested on: lpxH mutants of EN243 (Eco MG1655 ∆tolC); assay: MIC, lpxH mutants with reduced susceptibility in efflux-defective E. coli background; format: cell-based; settings: Escherichia coli
Description: as §1
Minimum inhibitory concentration (MIC) determination. Broth microdilution and agar dilution MIC assays were conducted according to CLSI guidelines (M07-2012). Appropriate inoculation suspension density was assessed using a Sensititre Nephelometer with a Sensititre 0.5 […]
as §2
Frequency of Resistance. Frequency of resistance was assessed by spread plating between […] cfu of a freshly-grown culture of the strain of interest on plates containing a concentration of compound corresponding to 4 times the MIC of the strain (as determined by agar-dilution MIC). Serial dilutions of the same cultures were plated on non-selective media to determine the number of cells plated. The frequency of resistance was determined by dividing the number of colonies obtained on the selective plates after 24 hours of growth by the calculated total population plated. Typically 4 independently grown cultures were used to initiate 4 separate experiments, and the total combined number of obtained colonies and plated populations were used for calculations. Isolated colonies from selection plates were re-streaked on an additional plate containing the same concentration of compound used in the original selection. Clones were saved at -80 °C for subsequent analysis.
Whole-genome sequencing and data analysis. Genomic DNA of selected clones was prepared using an Epicentre MasterPure Complete DNA Purification Kit. Whole-genome sequencing libraries were prepared using an Illumina Nextera XT Library Preparation Kit. The libraries were sequenced using an Illumina MiSeq device with a V3 600-cycle reagent kit. Whole-genome sequencing data was analyzed using CLC Genomics Workbench Version 11. […]

E. coli ATCC 25922 = assay: Frequency of resistance and agar MIC, E. coli; format: cell-based; settings: Escherichia coli, ATCC25922, read-out: Agar MIC E. coli ATCC 25922
Description: as §1
Minimum inhibitory concentration (MIC) determination. […] Appropriate inoculation suspension density was assessed using a Sensititre Nephelometer with a Sensititre 0.5 […]
Frequency of Resistance. Frequency of resistance was assessed by spread plating between […] cfu of a freshly-grown culture of the strain of interest on plates containing a concentration of compound corresponding to 4 times the MIC of the strain (as determined by agar-dilution MIC). […] The frequency of resistance was determined by dividing the number of colonies obtained on the selective plates after 24 hours of growth by the calculated total population plated. […]

CC(=O)N1CCc2cc(S(=O)(=O)N3CCN(c4cccc(C(F)(F)F)c4)CC3)ccc21 [AZ1, reference compound] showed an MIC (Eco MG1655 ∆tolC (EN243)) of 0.125 µg/mL (≈ 0.276 µM), an MIC ([1]; MG1655, read-out: MIC CH6045) of 2 µg/mL (≈ 4.41 µM) and an MIC ([1]; MG1655, read-out: MIC CH6047) greater than 64 µg/mL. For the same molecule, the MIC ([1]; MG1655, read-out: MIC CH6048) was 0.5 µg/mL (≈ 1.1 µM), the MIC ([1]; MG1655, read-out: MIC CH6051) was greater than 64 µg/mL and the MIC ([1]; MG1655, read-out: MIC CH7010) was 2 µg/mL (≈ 4.41 µM). It also gave an MIC ([1]; MG1655, read-out: MIC CH7011) of 2 µg/mL (≈ 4.41 µM), an MIC ([1]; MG1655, read-out: MIC CH7012) of 4 µg/mL (≈ 8.82 µM) and an MIC ([1]; MG1655, read-out: MIC CH7013) of 64 µg/mL (≈ 141 µM). For the same molecule, the MIC ([1]; MG1655, read-out: MIC CH7015) was greater than 64 µg/mL, the MIC ([1]; MG1655, read-out: MIC CH7016) was 2 µg/mL (≈ 4.41 µM) and the MIC ([1]; MG1655, read-out: MIC CH8845) was 2 µg/mL (≈ 4.41 µM). For the same molecule, the MIC ([1]; MG1655, read-out: MIC CH8846) was 2 µg/mL (≈ 4.41 µM), the MIC ([1]; MG1655, read-out: MIC CH8847) was greater than 64 µg/mL and the MIC ([1]; MG1655, read-out: MIC CH8848) was 4 µg/mL (≈ 8.82 µM). It also gave an MIC ([1]; MG1655, read-out: MIC CH8850) of 2 µg/mL (≈ 4.41 µM), an MIC ([1]; MG1655, read-out: MIC CH8851) of 1 µg/mL (≈ 2.21 µM) and an MIC ([1]; MG1655, read-out: MIC CH8853) of 2 µg/mL (≈ 4.41 µM). It also gave an MIC ([1]; MG1655, read-out: MIC CH8854) of 2 µg/mL (≈ 4.41 µM), an MIC ([1]; MG1655, read-out: MIC CH8855) greater than 64 µg/mL and an MIC ([1]; MG1655, read-out: MIC CH8856) greater than 64 µg/mL. It also gave an MIC ([1]; MG1655, read-out: MIC CH8868) greater than 64 µg/mL, an MIC ([1]; MG1655, read-out: MIC CH8869) of 0.125 µg/mL (≈ 0.276 µM) and an MIC ([1]; MG1655, read-out: MIC CH8870) greater than 64 µg/mL. For the same molecule, the MIC ([1]; MG1655, read-out: MIC CH8871) was greater than 64 µg/mL.
Cc1cc(C#N)nc(N2CCN(S(=O)(=O)c3ccc(NC(=O)c4cc(CNCCCN)ccc4N(C)S(C)(=O)=O)cc3)CC2)n1.Cl.Cl [EBL-3599] was tested, and the MIC (E. coli ATCC 25922) was 2 µg/mL.
Cc1cc(C#N)nc(N2CCN(S(=O)(=O)c3ccc(NC(=O)c4cc(CN5CC(CN)C5)ccc4N(C)S(C)(=O)=O)cc3)CC2)n1 [EBL-3647] showed an MIC (E. coli ATCC 25922) of 2 µg/mL (≈ 2.99 µM).
With CN(c1ccccc1C(=O)Nc1ccc(S(=O)(=O)N2CCCCC2)cc1)S(C)(=O)=O [JEDI-852] the MIC (Eco MG1655 ∆tolC (EN243)) was 4 µg/mL (≈ 8.86 µM), the MIC ([1]; MG1655, read-out: MIC CH6045) was 64 µg/mL (≈ 142 µM) and the MIC ([1]; MG1655, read-out: MIC CH6047) was greater than 64 µg/mL. The MIC ([1]; MG1655, read-out: MIC CH6048) was 32 µg/mL (≈ 70.9 µM), the MIC ([1]; MG1655, read-out: MIC CH6051) was greater than 64 µg/mL and the MIC ([1]; MG1655, read-out: MIC CH7010) was 2 µg/mL (≈ 4.43 µM). For the same molecule, the MIC ([1]; MG1655, read-out: MIC CH7011) was 16 µg/mL (≈ 35.4 µM), the MIC ([1]; MG1655, read-out: MIC CH7012) was 16 µg/mL (≈ 35.4 µM) and the MIC ([1]; MG1655, read-out: MIC CH7013) was greater than 64 µg/mL. For the same molecule, the MIC ([1]; MG1655, read-out: MIC CH7015) was 32 µg/mL (≈ 70.9 µM), the MIC ([1]; MG1655, read-out: MIC CH7016) was 16 µg/mL (≈ 35.4 µM) and the MIC ([1]; MG1655, read-out: MIC CH8845) was 32 µg/mL (≈ 70.9 µM). The MIC ([1]; MG1655, read-out: MIC CH8846) was 32 µg/mL (≈ 70.9 µM), the MIC ([1]; MG1655, read-out: MIC CH8847) was greater than 64 µg/mL and the MIC ([1]; MG1655, read-out: MIC CH8848) was greater than 64 µg/mL. For the same molecule, the MIC ([1]; MG1655, read-out: MIC CH8850) was greater than 64 µg/mL, the MIC ([1]; MG1655, read-out: MIC CH8851) was 8 µg/mL (≈ 17.7 µM) and the MIC ([1]; MG1655, read-out: MIC CH8853) was greater than 64 µg/mL. For the same molecule, the MIC ([1]; MG1655, read-out: MIC CH8854) was greater than 64 µg/mL, the MIC ([1]; MG1655, read-out: MIC CH8855) was greater than 64 µg/mL and the MIC ([1]; MG1655, read-out: MIC CH8856) was greater than 64 µg/mL. For the same molecule, the MIC ([1]; MG1655, read-out: MIC CH8868) was greater than 64 µg/mL, the MIC ([1]; MG1655, read-out: MIC CH8869) was 4 µg/mL (≈ 8.86 µM) and the MIC ([1]; MG1655, read-out: MIC CH8870) was 32 µg/mL (≈ 70.9 µM). It also gave an MIC ([1]; MG1655, read-out: MIC CH8871) greater than 64 µg/mL.
CN(c1ccccc1C(=O)Nc1ccc(S(=O)(=O)N2CCN(c3cccc(C(F)(F)F)c3)CC2)cc1)S(C)(=O)=O [JEDI-1444] gave an MIC (Eco MG1655 ∆tolC (EN243)) of 0.016 µg/mL (≈ 0.0268 µM), an MIC ([1]; MG1655, read-out: MIC CH6045) of 0.25 µg/mL (≈ 0.419 µM) and an MIC ([1]; MG1655, read-out: MIC CH6047) of 1 µg/mL (≈ 1.68 µM). The MIC ([1]; MG1655, read-out: MIC CH6048) was 0.064 µg/mL (≈ 0.107 µM), the MIC ([1]; MG1655, read-out: MIC CH6051) was greater than 2 µg/mL and the MIC ([1]; MG1655, read-out: MIC CH7010) was 0.064 µg/mL (≈ 0.107 µM). The MIC ([1]; MG1655, read-out: MIC CH7011) was 0.25 µg/mL (≈ 0.419 µM), the MIC ([1]; MG1655, read-out: MIC CH7012) was 0.064 µg/mL (≈ 0.107 µM) and the MIC ([1]; MG1655, read-out: MIC CH7013) was 0.125 µg/mL (≈ 0.21 µM). The MIC ([1]; MG1655, read-out: MIC CH7015) was 0.064 µg/mL (≈ 0.107 µM), the MIC ([1]; MG1655, read-out: MIC CH7016) was 0.125 µg/mL (≈ 0.21 µM) and the MIC ([1]; MG1655, read-out: MIC CH8845) was 1 µg/mL (≈ 1.68 µM). It also gave an MIC ([1]; MG1655, read-out: MIC CH8846) of 0.25 µg/mL (≈ 0.419 µM), an MIC ([1]; MG1655, read-out: MIC CH8847) greater than 2 µg/mL and an MIC ([1]; MG1655, read-out: MIC CH8848) of 0.5 µg/mL (≈ 0.838 µM). For the same molecule, the MIC ([1]; MG1655, read-out: MIC CH8850) was 0.5 µg/mL (≈ 0.838 µM), the MIC ([1]; MG1655, read-out: MIC CH8851) was 0.25 µg/mL (≈ 0.419 µM) and the MIC ([1]; MG1655, read-out: MIC CH8853) was 0.25 µg/mL (≈ 0.419 µM). It also gave an MIC ([1]; MG1655, read-out: MIC CH8854) of 0.25 µg/mL (≈ 0.419 µM), an MIC ([1]; MG1655, read-out: MIC CH8855) greater than 2 µg/mL and an MIC ([1]; MG1655, read-out: MIC CH8856) greater than 2 µg/mL. For the same molecule, the MIC ([1]; MG1655, read-out: MIC CH8868) was 2 µg/mL (≈ 3.35 µM), the MIC ([1]; MG1655, read-out: MIC CH8869) was 0.064 µg/mL (≈ 0.107 µM) and the MIC ([1]; MG1655, read-out: MIC CH8870) was 0.25 µg/mL (≈ 0.419 µM). The MIC ([1]; MG1655, read-out: MIC CH8871) was 2 µg/mL (≈ 3.35 µM).
